The supplement of paper PMC11061612

What was measured:
[1] = test system: SU8686 (Pancreatic Carcinoma); test: Bliss excess, mean over the matrix (fraction); higher = more synergy
Procedure, shortened: (§1)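 Cell lines in DMEM/F12 or RPMI with 10% FBS were plated in 1536-well plates, held 24 hours at 37°C, 5% CO2, then given two-drug dose matrices for 72 hours (DMSO typically 0.2%). Viability was read by CellTiter-Glo 2.0 luminescence and scaled as inhibition from 0 (vehicle wells) to 1 (blank wells). Combination Emax is the second-highest inhibition in the matrix; Bliss excess is observed combination effect minus expected EA + EB − EA·EB, EA and EB being single-agent effects.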

YH-13 (Glioblastoma) = test: as above
Procedure, shortened: as §1

[2] = test system: JVM-3 (B-Cell Non-Hodgkin's Lymphoma); test: as above
Procedure, shortened: as §1

[3] = test system: JVM-3 (B-Cell Non-Hodgkin's Lymphoma); test: combination Emax (second highest fraction inhibited in the dose matrix, 72 h); higher = more inhibition; extreme values may be limits of the assay
Procedure, shortened: as §1
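Throughout, for Bliss excess, mean over the matrix: after 72 h of two-drug dosing.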

Compound: Cc1c2c(nn1C)CSCc1cc(n(C)n1)CSc1cc(c3ccccc3c1)OCCCc1c(C(=O)O)n(C)c3c-2c(Cl)ccc13 [AZD5991] + CN(C)CCCOc1ccc(-c2ccc3ncc4c(c3c2)n(C2CCOCC2)c(=O)n4C)cn1 [AZD0156] (first compound max 1 µM, 7x7, partner max 1 µM)
- Bliss excess [1]: -0.0413
- Bliss excess (YH-13 (Glioblastoma)): -0.0465
- Bliss excess [2]: -0.0613
- combination Emax [3]: 0.509

Compound: Cc1c2c(nn1C)CSCc1cc(n(C)n1)CSc1cc(c3ccccc3c1)OCCCc1c(C(=O)O)n(C)c3c-2c(Cl)ccc13 [AZD5991] + C[C@@H]1COCCN1C2=NC(=NC(=C2)C3(CC3)[S@](=N)(=O)C)C4=C5C=CNC5=NC=C4 [AZD6738] (first compound max 1 µM, 7x7, partner max 10 µM)
- Bliss excess [1]: -0.008
- Bliss excess (YH-13 (Glioblastoma)): 0.0218
- Bliss excess [2]: -0.0642
- combination Emax [3]: 0.713

Compound: Cc1c2c(nn1C)CSCc1cc(n(C)n1)CSc1cc(c3ccccc3c1)OCCCc1c(C(=O)O)n(C)c3c-2c(Cl)ccc13 [AZD5991] + C[C@@H](Nc1cc(F)cc(F)c1)c1cc(C(=O)N(C)C)cc2c(=O)cc(N3CCOCC3)oc12 [AZD8186] (first compound max 1 µM, 7x7, partner max 3 µM)
- Bliss excess [1]: -0.0002
- Bliss excess (YH-13 (Glioblastoma)): 0.0058
- Bliss excess [2]: -0.0119
- combination Emax [3]: 0.44

Compound: Cc1c2c(nn1C)CSCc1cc(n(C)n1)CSc1cc(c3ccccc3c1)OCCCc1c(C(=O)O)n(C)c3c-2c(Cl)ccc13 [AZD5991] + Cc1cc2ncnn2cc1Nc1ncc2c(n1)n(C1CCOCC1)c(=O)n2C [AZD7648] (first compound max 1 µM, 7x7, partner max 10 µM)
- Bliss excess [1]: -0.0366
- Bliss excess (YH-13 (Glioblastoma)): -0.091
- Bliss excess [2]: -0.0539
- combination Emax [3]: 0.498

Compound: Cc1c2c(nn1C)CSCc1cc(n(C)n1)CSc1cc(c3ccccc3c1)OCCCc1c(C(=O)O)n(C)c3c-2c(Cl)ccc13 [AZD5991] + Cn1cnc2c(F)c(Nc3ccc(Br)cc3Cl)c(C(=O)NOCCO)cc21 [Selumetinib] (first compound max 1 µM, 7x7, partner max 3 µM)
- Bliss excess [1]: 0.0084
- Bliss excess (YH-13 (Glioblastoma)): -0.0347
- Bliss excess [2]: -0.0296
- combination Emax [3]: 0.472

Compound: C[C@@H]1COCCN1c1cc(C2([S@](C)(=N)=O)CC2)nc(-c2ccnc3[nH]ccc23)n1 [AZD6738] + O=C(c1cc(Cc2n[nH]c(=O)c3ccccc23)ccc1F)N1CCN(C(=O)C2CC2)CC1 [Olaparib] (first compound max 10 µM, 7x7, partner max 10 µM)
- Bliss excess [1]: -0.0231
- Bliss excess (YH-13 (Glioblastoma)): 0.0254
- Bliss excess [2]: -0.0937
- combination Emax [3]: 0.704

Compound: COc1cccc2c1C(=O)c1c(O)c3c(c(O)c1C2=O)C[C@@](O)(C(=O)CO)C[C@@H]3O[C@H]1C[C@H](N)[C@H](O)[C@H](C)O1 [Doxorubicin] + Cc1cc2ncnn2cc1Nc1ncc2c(n1)n(C1CCOCC1)c(=O)n2C [AZD7648] (first compound max 1 µM, 7x7, partner max 10 µM)
- Bliss excess [1]: -0.0262
- Bliss excess (YH-13 (Glioblastoma)): 0.0443
- Bliss excess [2]: 0.0661
- combination Emax [3]: 0.978

Compound: COc1cccc(OCCCN)c1-c1cc(Nc2cnc(C#N)cn2)n[nH]1 [Prexasertib] + C=CCn1c(=O)c2cnc(Nc3ccc(N4CCN(C)CC4)cc3)nc2n1-c1cccc(C(C)(C)O)n1 [AZD1775] (first compound max 1 µM, partner max 1 µM)
- Bliss excess [1]: 0.0024
- Bliss excess (YH-13 (Glioblastoma)): 0.0439
- Bliss excess [2]: 0.0369
- combination Emax [3]: 0.973

Compound: COc1cccc(OCCCN)c1-c1cc(Nc2cnc(C#N)cn2)n[nH]1 [Prexasertib] + CCc1c2c(nc3ccc(O)cc13)-c1cc3c(c(=O)n1C2)COC(=O)[C@]3(O)CC [SN-38] (first compound max 1 µM, 7x7, partner max 0.3 µM)
- Bliss excess [1]: 0.02
- Bliss excess (YH-13 (Glioblastoma)): 0.0079
- Bliss excess [2]: -0.0363
- combination Emax [3]: 0.994

Compound: COc1cccc(OCCCN)c1-c1cc(Nc2cnc(C#N)cn2)n[nH]1 [Prexasertib] + CN(C)CCCOc1ccc(-c2ccc3ncc4c(c3c2)n(C2CCOCC2)c(=O)n4C)cn1 [AZD0156] (first compound max 1 µM, 7x7, partner max 1 µM)
- Bliss excess [1]: -0.0068
- Bliss excess (YH-13 (Glioblastoma)): -0.0203
- Bliss excess [2]: -0.0097
- combination Emax [3]: 0.985

Compound: COc1cccc(OCCCN)c1-c1cc(Nc2cnc(C#N)cn2)n[nH]1 [Prexasertib] + C[C@@H]1COCCN1C2=NC(=NC(=C2)C3(CC3)[S@](=N)(=O)C)C4=C5C=CNC5=NC=C4 [AZD6738] (first compound max 1 µM, 7x7, partner max 10 µM)
- Bliss excess [1]: -0.0315
- Bliss excess (YH-13 (Glioblastoma)): -0.018
- Bliss excess [2]: -0.0351
- combination Emax [3]: 0.966

Compound: COc1cccc(OCCCN)c1-c1cc(Nc2cnc(C#N)cn2)n[nH]1 [Prexasertib] + Cc1cc2ncnn2cc1Nc1ncc2c(n1)n(C1CCOCC1)c(=O)n2C [AZD7648] (first compound max 1 µM, 7x7, partner max 10 µM)
- Bliss excess [1]: -0.0227
- Bliss excess (YH-13 (Glioblastoma)): -0.0146
- Bliss excess [2]: -0.027
- combination Emax [3]: 0.981

Compound: COc1cccc(OCCCN)c1-c1cc(Nc2cnc(C#N)cn2)n[nH]1 [Prexasertib] + O=C(c1cc(Cc2n[nH]c(=O)c3ccccc23)ccc1F)N1CCN(C(=O)C2CC2)CC1 [Olaparib] (first compound max 1 µM, 7x7, partner max 10 µM)
- Bliss excess [1]: -0.0504
- Bliss excess (YH-13 (Glioblastoma)): -0.0598
- Bliss excess [2]: -0.0314
- combination Emax [3]: 0.986

Compound: CCc1c2c(nc3ccc(O)cc13)-c1cc3c(c(=O)n1C2)COC(=O)[C@]3(O)CC [SN-38] + CN(C)CCCOc1ccc(-c2ccc3ncc4c(c3c2)n(C2CCOCC2)c(=O)n4C)cn1 [AZD0156] (first compound max 0.3 µM, 7x7, partner max 1 µM)
- Bliss excess [1]: -0.0327
- Bliss excess (YH-13 (Glioblastoma)): -0.0036
- Bliss excess [2]: -0.0309
- combination Emax [3]: 0.982

Compound: CC(=O)Nc1cccc(-n2c(=O)n(C3CC3)c(=O)c3c(Nc4ccc(I)cc4F)n(C)c(=O)c(C)c32)c1 [Trametinib] + Cc1nc(-c2cn3c(n2)-c2ccc(-c4cnn(C(C)(C)C(N)=O)c4)cc2OCC3)n(C(C)C)n1 [Taselisib] (first compound max 1 µM, 7x7, partner max 10 µM)
- Bliss excess [1]: 0.094
- Bliss excess (YH-13 (Glioblastoma)): 0.0704
- Bliss excess [2]: -0.006
- combination Emax [3]: 0.734

Compound: CC1(C)CCC(CN2CCN(c3ccc(C(=O)NS(=O)(=O)c4ccc(NCC5CCOCC5)c([N+](=O)[O-])c4)c(Oc4cnc5[nH]ccc5c4)c3)CC2)=C(c2ccc(Cl)cc2)C1 [Venetoclax] + C1CN(CCC1(C(=O)N[C@@H](CCO)C2=CC=C(C=C2)Cl)N)C3=NC=NC4=C3C=CN4 [Capivasertib] (first compound max 1 µM, 7x7, partner max 3 µM)
- Bliss excess [1]: -0.0379
- Bliss excess (YH-13 (Glioblastoma)): -0.039
- Bliss excess [2]: 0.0192
- combination Emax [3]: 0.636

Compound: CC1(C)CCC(CN2CCN(c3ccc(C(=O)NS(=O)(=O)c4ccc(NCC5CCOCC5)c([N+](=O)[O-])c4)c(Oc4cnc5[nH]ccc5c4)c3)CC2)=C(c2ccc(Cl)cc2)C1 [Venetoclax] + C=CCn1c(=O)c2cnc(Nc3ccc(N4CCN(C)CC4)cc3)nc2n1-c1cccc(C(C)(C)O)n1 [AZD1775] (first compound max 1 µM, partner max 1 µM)
- Bliss excess [1]: -0.0317
- Bliss excess (YH-13 (Glioblastoma)): -0.0085
- Bliss excess [2]: -0.0521
- combination Emax [3]: 0.953

Compound: CC1(C)CCC(CN2CCN(c3ccc(C(=O)NS(=O)(=O)c4ccc(NCC5CCOCC5)c([N+](=O)[O-])c4)c(Oc4cnc5[nH]ccc5c4)c3)CC2)=C(c2ccc(Cl)cc2)C1 [Venetoclax] + CCN(CCO)CCCOc1ccc2c(Nc3cc(CC(=O)Nc4cccc(F)c4)[nH]n3)ncnc2c1 [AZD2811] (first compound max 1 µM, 7x7, partner max 1 µM)
- Bliss excess [1]: -0.0364
- Bliss excess (YH-13 (Glioblastoma)): -0.0428
- Bliss excess [2]: 0.162
- combination Emax [3]: 0.653

Compound: CC1(C)CCC(CN2CCN(c3ccc(C(=O)NS(=O)(=O)c4ccc(NCC5CCOCC5)c([N+](=O)[O-])c4)c(Oc4cnc5[nH]ccc5c4)c3)CC2)=C(c2ccc(Cl)cc2)C1 [Venetoclax] + CN(C)CCCOc1ccc(-c2ccc3ncc4c(c3c2)n(C2CCOCC2)c(=O)n4C)cn1 [AZD0156] (first compound max 1 µM, 7x7, partner max 1 µM)
- Bliss excess [1]: -0.0036
- Bliss excess (YH-13 (Glioblastoma)): -0.0972
- Bliss excess [2]: 0.0085
- combination Emax [3]: 0.673

Compound: CC1(C)CCC(CN2CCN(c3ccc(C(=O)NS(=O)(=O)c4ccc(NCC5CCOCC5)c([N+](=O)[O-])c4)c(Oc4cnc5[nH]ccc5c4)c3)CC2)=C(c2ccc(Cl)cc2)C1 [Venetoclax] + COc1cc(Nc2ncc3c(n2)-c2ccc(Cl)cc2C(c2c(F)cccc2OC)=NC3)ccc1C(=O)O [Alisertib] (first compound max 1 µM, 7x7, partner max 10 µM)
- Bliss excess [1]: -0.0438
- Bliss excess (YH-13 (Glioblastoma)): 0.111
- Bliss excess [2]: 0.215
- combination Emax [3]: 0.823

Compound: CC1(C)CCC(CN2CCN(c3ccc(C(=O)NS(=O)(=O)c4ccc(NCC5CCOCC5)c([N+](=O)[O-])c4)c(Oc4cnc5[nH]ccc5c4)c3)CC2)=C(c2ccc(Cl)cc2)C1 [Venetoclax] + C[C@@H]1COCCN1C2=NC(=NC(=C2)C3(CC3)[S@](=N)(=O)C)C4=C5C=CNC5=NC=C4 [AZD6738] (first compound max 1 µM, 7x7, partner max 10 µM)
- Bliss excess [1]: -0.0285
- Bliss excess (YH-13 (Glioblastoma)): -0.0325
- Bliss excess [2]: 0.0106
- combination Emax [3]: 0.9

Compound: CC1(C)CCC(CN2CCN(c3ccc(C(=O)NS(=O)(=O)c4ccc(NCC5CCOCC5)c([N+](=O)[O-])c4)c(Oc4cnc5[nH]ccc5c4)c3)CC2)=C(c2ccc(Cl)cc2)C1 [Venetoclax] + C[C@@H](Nc1cc(F)cc(F)c1)c1cc(C(=O)N(C)C)cc2c(=O)cc(N3CCOCC3)oc12 [AZD8186] (first compound max 1 µM, 7x7, partner max 3 µM)
- Bliss excess [1]: -0.0303
- Bliss excess (YH-13 (Glioblastoma)): -0.0336
- Bliss excess [2]: -0.0619
- combination Emax [3]: 0.486

Compound: CC1(C)CCC(CN2CCN(c3ccc(C(=O)NS(=O)(=O)c4ccc(NCC5CCOCC5)c([N+](=O)[O-])c4)c(Oc4cnc5[nH]ccc5c4)c3)CC2)=C(c2ccc(Cl)cc2)C1 [Venetoclax] + Cc1cc2ncnn2cc1Nc1ncc2c(n1)n(C1CCOCC1)c(=O)n2C [AZD7648] (first compound max 1 µM, 7x7, partner max 10 µM)
- Bliss excess [1]: -0.0195
- Bliss excess (YH-13 (Glioblastoma)): -0.0484
- Bliss excess [2]: -0.0799
- combination Emax [3]: 0.64

Compound: CC1(C)CCC(CN2CCN(c3ccc(C(=O)NS(=O)(=O)c4ccc(NCC5CCOCC5)c([N+](=O)[O-])c4)c(Oc4cnc5[nH]ccc5c4)c3)CC2)=C(c2ccc(Cl)cc2)C1 [Venetoclax] + Cn1cnc2c(F)c(Nc3ccc(Br)cc3Cl)c(C(=O)NOCCO)cc21 [Selumetinib] (first compound max 1 µM, 7x7, partner max 3 µM)
- Bliss excess [1]: -0.0792
- Bliss excess (YH-13 (Glioblastoma)): -0.0542
- Bliss excess [2]: -0.0583
- combination Emax [3]: 0.486
